In paper PMC11508334, “In Vitro Evaluation of New 5-Nitroindazolin-3-one Derivatives as Promising Agents against Trypanosoma cruzi” (International Journal of Molecular Sciences, 2024):

What was measured:
[1] = Cyclic voltammetry, reduction of nitro group; assay type: physicochemical; settings: for −EpaIII: anodic peak potential of couple IIIc/IIIa; for −EpaIII / −EpcIII / −E1/2: given with inverted sign, vs. Ag/AgCl electrode in DMSO; for −EpcIII: cathodic peak potential of couple IIIc/IIIa; for Ipa/Ipc: current ratio RNO2/RNO2•−, couple IIIc/IIIa, DMSO; for −E1/2: half-wave potential of couple IIIc/IIIa
Protocol: Cyclic Voltammetry (CV) was carried out using a Metrohm Autolab instrument model PGSTAT204, using dimethyl sulfoxide (DMSO) as the solvent (1 mM solutions), tetrabutylammonium perchlorate (0.1 M TBAP) as the supporting electrolyte, a hanging drop mercury electrode (HDME) as the working electrode, Ag/AgCl (3M KCl) as the reference electrode, and a graphite rod as the counter electrode. All measurements were performed after bubbling with nitrogen (N2) for 10 min.
Using Nicholson’s procedure, the Ipa/Ipc values (RNO2/RNO2^•−) were measured from each cyclic voltammogram with a scan rate between 0.1 and 2.5 V/s.

Dm28c trypomastigotes = experiment: Trypomastigote viability study (MTT); assay type: cell-based, Trypanosoma cruzi; settings: for SI Trypomastigote: Selectivity Index IC50 macrophages RAW 264.7/IC50 trypomastigotes Dm28c; for IC50: Trypanosoma cruzi, T. cruzi Dm28c trypomastigotes, 24 h, MTT
Protocol: Vero cells (ATCC CCL-81) were infected with Dm28c trypomastigotes at a 1:3 (cell: parasite) ratio. T. cruzi trypomastigotes were initially obtained from primary cultures of peritoneal macrophage from chagasic mice. […] Vero cell cultures were then infected with trypomastigotes and incubated at 37 °C in humidified air and 5% CO2 for 5–7 days. After that time, the culture medium was collected and centrifuged at 500× g for 5 min. The trypomastigote-containing pellet was re-suspended in RPMI 1640 supplemented with inactivated FBS and penicillin–streptomycin at a final 1 × 10^7 parasites/mL density. Trypomastigote viability assays were performed using the MTT reduction method as described previously. Then, 1 × 10^7 parasites/mL was incubated in RPMI 1640 with inactivated FBS at 37 °C for 24 h with or without the studied compounds.

[2] = tested on: T. cruzi epimastigote stage (Dm28c strain); experiment: Epimastigotes viability study (MTT); assay type: cell-based, Trypanosoma cruzi; settings: for SI Epimastigote: Selectivity Index IC50 macrophages RAW 264.7/IC50 epimastigotes Dm28c; for IC50: Trypanosoma cruzi, T. cruzi Dm28c epimastigotes, 24 h, MTT
Protocol: The trypanocidal activity was evaluated against the T. cruzi epimastigote stage (Dm28c strain). It was measured through the MTT assay using 0.22 mg/mL phenazine methosulfate (as an electron carrier). T. cruzi epimastigote from the author's collection (Programa de Farmacología Molecular y Clínica, Facultad de Medicina, Universidad de Chile, Santiago, Chile) were grown at 28 °C in liver infusion tryptase (LIT) medium, as reported earlier, but replacing blood with 4 μM hemin. […] fetal bovine serum (FBS) was added to a final concentration of 10% v/v. In this colorimetric assay for testing the trypanocidal activity, the compounds were dissolved in DMSO. They were added to 3 × 10^6 parasites/mL at 100 μM final concentrations in RPMI 1640 culture medium without phenol red for 24 h at 28 °C. The final concentration of DMSO was less than 0.1% v/v. […] The MTT assay, which was described previously, determined the viability of the epimastigotes.

RAW 264.7 cells = experiment: Cytotoxicity MTT assay on RAW 264.7 cells; assay type: cell-based; settings: Mus musculus, RAW264.7, in vitro cytotoxicity, murine RAW 264.7 macrophages
Protocol: The compounds under study, dissolved in dimethylsulfoxide (DMSO), were added to the culture media at 10–200 μM. RAW 264.7 cells were cultured in 96-well plates (5 × 10^4 cells per well), and 100 μL of 0.5 mg/mL MTT was added to each well. The DMSO final concentration was less than 0.1% v/v. After incubation for 4 h at 37 °C, the generated water-insoluble formazan dye was dissolved by adding 100 μL of 10% w/v sodium dodecyl sulfate (SDS) in 0.01 M HCl. The plates were further incubated overnight at 37 °C; […] 0.5% of Triton X-100 was added as a positive control. The plates were further incubated overnight at 37 °C, and the optical density of the wells was determined using a microplate reader (Asys Expert Plus©, Asys Hitachi, Vienna, Austria) at 570 nm. Under these conditions, the optical density is directly proportional to the viable cell number in each well. All experiments were performed at least thrice and data were reported as means and their standard deviations from triplicate cultures. Results are reported as IC50 regarding the control (uninfected cells in culture medium)

Row | SMILES | −EpaIII [1] [V] | −EpcIII [1] [V] | Ipa/Ipc [1] | −E1/2 [1] [V] | IC50 [2] [µM] | melting point [°C] | SI Trypomastigote (Dm28c trypomastigotes) | IC50 (Dm28c trypomastigotes) [µM] | SI Epimastigote [2] | IC50 (RAW 264.7 cells) [µM]
1 | O=C(Cn1ccnc1[N+](=O)[O-])NCc1ccccc1 [BNZ, benznidazole, reference compound] | 0.93 | 1.08 | 0.98 | 1.00 |  |  |  |  |  | 
2 | O=c1c2cc([N+](=O)[O-])ccc2[nH]n1-c1ccccc1 [Compound 4] | 1.27 | 1.37 | 0.63 | 1.32 | 46.9 ± 3.4 |  | 1.5 | 63.4 ± 1.4 | 2.1 | 97.5 ± 1.2
3 | Cn1c2ccc([N+](=O)[O-])cc2c(=O)n1Cc1ccccc1F [Compound 6] | 0.94 | 1.22 | 0.99 | 1.08 | 32.9 ± 0.7 |  | 1.5 | 56.4 ± 1.5 | 2.6 | 83.9 ± 0.9
4 | Cn1c2ccc([N+](=O)[O-])cc2c(=O)n1Cc1cccc(F)c1 [Compound 7, 2-(3-Fluorobenzyl)-1-methyl-5-nitro-1,2-dihydro-3H-indazol-3-one] | 0.98 | 1.20 | 1.00 | 1.09 | 29.5 ± 1.5 | 125 to 127 | 2.3 | 41.2 ± 0.8 | 3.2 | 95.1 ± 1.1
5 | Cn1c2ccc([N+](=O)[O-])cc2c(=O)n1Cc1ccc(F)cc1 [Compound 8, 2-(4-Fluorobenzyl)-1-methyl-5-nitro-1,2-dihydro-3H-indazol-3-one] | 0.99 | 1.14 | 1.00 | 1.07 | 36.4 ± 0.8 | 139 to 141 | 2.0 | 57.8 ± 1.3 | 3.2 | 116 ± 1.7
6 | Cn1c2ccc([N+](=O)[O-])cc2c(=O)n1Cc1ccccc1Cl [Compound 9, 2-(2-Chlorobenzyl)-1-methyl-5-nitro-1,2-dihydro-3H-indazol-3-one] | 1.02 | 1.10 | 0.96 | 1.06 | 43.7 ± 2 | 179 to 181 | 2.8 | 61.6 ± 1.4 | 4.0 | 176 ± 2.3
7 | Cn1c2ccc([N+](=O)[O-])cc2c(=O)n1Cc1cccc(Cl)c1 [Compound 10, 2-(3-Chlorobenzyl)-1-methyl-5-nitro-1,2-dihydro-3H-indazol-3-one] | 0.96 | 1.17 | 0.93 | 1.07 | 40.3 ± 2 | 154 to 156 | >3.7 | 54.2 ± 1.1 | >5.0 | > 200
8 | Cn1c2ccc([N+](=O)[O-])cc2c(=O)n1Cc1ccccc1Br [Compound 12, 2-(2-Bromobenzyl)-1-methyl-5-nitro-1,2-dihydro-3H-indazol-3-one] | 0.96 | 1.17 | 1.00 | 1.07 | 30.3 ± 1.1 | 182 to 184 | 1.4 | 52.5 ± 1.3 | 2.4 | 72.4 ± 1.6
9 | Cn1c2ccc([N+](=O)[O-])cc2c(=O)n1Cc1ccc(Br)cc1 [Compound 14, 2-(4-Bromobenzyl)-1-methyl-5-nitro-1,2-dihydro-3H-indazol-3-one] | 0.99 | 1.20 | 0.94 | 1.10 | 83.9 ± 1.9 | 144 to 146 | 3.5 | 48.6 ± 1.2 | 2.1 | 172 ± 2.3
10 | COc1ccc(Cn2c(=O)c3cc([N+](=O)[O-])ccc3n2C)cc1 [Compound 16, 2-(4-Methoxybenzyl)-1-methyl-5-nitro-1,2-dihydro-3H-indazol-3-one] | 1.03 | 1.15 | 0.91 | 1.09 | > 100 | 139 to 141 |  | > 100 |  | > 200

Now from value to compound, other results behind:

Row | −EpaIII [1] [V] | −EpcIII [1] [V] | Ipa/Ipc [1] | −E1/2 [1] [V] | IC50 [2] [µM] | melting point [°C] | SMILES | SI Trypomastigote (Dm28c trypomastigotes) | IC50 (Dm28c trypomastigotes) [µM] | SI Epimastigote [2] | IC50 (RAW 264.7 cells) [µM]
11 | 0.82 | 1.37 | 0.96 | 1.10 | 35.4 ± 1.1 | 211 to 213 | Cn1c2ccc([N+](=O)[O-])cc2c(=O)n1Cc1ccccc1C(F)(F)F [Compound 17, 1-Methyl-5-nitro-2-[2-(trifluoromethyl)benzyl]-1,2-dihydro-3H-indazol-3-one] | 1.9 | 89.3 ± 1 | 4.7 | 166 ± 2.3
12 | 1.02 | 1.12 | 0.91 | 1.07 | 68.7 ± 1.7 | 155 to 157 | CC(c1ccccc1)n1c(=O)c2cc([N+](=O)[O-])ccc2n1C (stereo not shown) [Compound 18, 1-Methyl-5-nitro-2-(1-phenylethyl)-1,2-dihydro-3H-indazol-3-one] |  | > 100 | >2.9 | > 200
13 | 1.28 | 1.35 | 0.65 | 1.32 | > 100 |  | Cn1nc(O)c2cc([N+](=O)[O-])ccc21 [Compound 19, 1-methyl-5-nitroindazol-3-ol] |  | > 100 |  | > 200
14 | 1.28 | 1.38 | 0.67 | 1.33 | > 100 |  | O=[N+]([O-])c1ccc2c(c1)c(O)nn2CCCCCO [Compound 20] |  | > 100 |  | > 200
15 | 1.27 | 1.37 | 0.56 | 1.32 | 84.3 ± 2.1 |  | O=[N+]([O-])c1ccc2c(c1)c(O)nn2CCCCCCCl [Compound 21] | >2.1 | 91.2 ± 2.2 | >2.4 | > 200
16 | 1.25 | 1.37 | 0.78 | 1.31 | > 100 |  | COc1nn(C)c2ccc([N+](=O)[O-])cc12 [Compound 23] |  | > 100 |  | > 200
17 | 0.85 | 0.91 | 1.01 | 0.88 | 17.4 ± 1.3 |  | CC1CS(=O)(=O)CCN1/N=C/c1ccc([N+](=O)[O-])o1 (stereo not shown) [NFX, nifurtimox, reference compound] | 12.3 | 21.5 ± 1.4 | 15.1 | 263.4 ± 2.2
